Test results published in patent publication US4362743A, “Antibacterial monic acid esters” (Beecham Group Limited, priority 1980, dated 1982).
Values after ≈ are worked out from the molar mass of the structure shown. Like-named read-outs stand apart in the source and are kept apart here.

Columns and labels:
Format in all cases: cell-based
[1] = system: M. suipneumoniae TAM 6N; assay: Anti-mycoplasmal activity in vitro MIC; details: Mesomycoplasma hyopneumoniae, TAM6N, 144 h
[2] = system: M. suipneumoniae MS16; assay: Anti-mycoplasmal activity in vitro MIC; details: Mesomycoplasma hyopneumoniae, MS16, 144 h
[3] = system: Ps. aeruginosa 10662; assay: Human bacteria MIC
Method: (§1) The values were determined by serial dilutions in nutrient agar with 5% chocolated horse blood after incubations for 18 hours at 37° C.

[4] = system: Bacillus subtilis 6633; assay: Human bacteria MIC
Method: as §1

[5] = system: Strep. Group C 64/848; assay: Human bacteria MIC
Method: as §1

[6] = system: Neisseria catarralis 1502; assay: Human bacteria MIC
Method: as §1

[7] = system: E. coli ESS; assay: Human bacteria MIC; details: Escherichia coli
Method: as §1

[8] = system: Strep. pneumoniae CN33; assay: Human bacteria MIC; details: Streptococcus pneumoniae
Method: as §1

[9] = system: Strep Group B 2788; assay: Human bacteria MIC
Method: as §1

[10] = system: K. aerogenes A; assay: Human bacteria MIC; details: Klebsiella aerogenes
Method: as §1

[11] = system: P. mirabilis 889; assay: Human bacteria MIC
Method: as §1

[12] = system: Staph. aureus Oxford; assay: Human bacteria MIC; details: Staphylococcus aureus
Method: as §1

[13] = system: Staph. aureus W2827; assay: Human bacteria MIC; details: Staphylococcus aureus; Staph. aureus W2827; nutrient agar, 5% chocolated horse blood, 18 hours 37° C.; read-out: M.I.C.
Method: as §1

[14] = system: Staph. aureus 152 (pen. sens); assay: Veterinary bacteria MIC; details: Staphylococcus aureus, Diagnostic Sensitivity Test Agar, 18 hours 37° C.
Method: (§2) The values were determined using a two fold serial dilutions in Diagnostic Sensitivity Test Agar with an inoculum of 10^4 organisms and incubation for 18 hours at 37° C.

[15] = system: Bord. brochiasetpica B09; assay: Veterinary bacteria MIC; details: Diagnostic Sensitivity Test Agar, 18 hours 37° C.
Method: as §2

[16] = system: E. coli El; assay: Veterinary bacteria MIC; details: Escherichia coli
Method: as §2

[17] = system: Strep. uberis SPU1; assay: Veterinary bacteria MIC; details: Streptococcus uberis, Diagnostic Sensitivity Test Agar, 18 hours 37° C.
Method: as §2

[18] = system: E. coli NCTC 10418; assay: Veterinary bacteria MIC; details: Escherichia coli
Method: as §2

[19] = system: Past. haemolytica PA5; assay: Veterinary bacteria MIC; details: Mannheimia haemolytica; Past. haemolytica PA5; Diagnostic Sensitivity Test Agar, 18 hours 37° C.; read-out: M.I.C.
Method: as §2

[20] = system: Corynebacterium pyogenes CY1; assay: Veterinary bacteria MIC; details: Trueperella pyogenes
Method: as §2

[21] = system: Erysipelothrix rhusiopathiae NCTC 8163; assay: Veterinary bacteria MIC
Method: as §2

[22] = system: Past. multocida PA2; assay: Veterinary bacteria MIC; details: Pasteurella multocida; Past. multocida PA2; Diagnostic Sensitivity Test Agar, 18 hours 37° C.; read-out: M.I.C.
Method: as §2

[23] = system: Strep. dysgalactiae SPD1; assay: Veterinary bacteria MIC; details: Streptococcus dysgalactiae, Diagnostic Sensitivity Test Agar, 18 hours 37° C.
Method: as §2

[24] = system: S. dublin S7; assay: Veterinary bacteria MIC; details: Salmonella enterica
Method: as §2

[25] = system: Bord. bronchiseptica B08; assay: Veterinary bacteria MIC; details: Bordetella bronchiseptica
Method: as §2

[26] = system: S. typhimurium S18; assay: Veterinary bacteria MIC; details: Salmonella enterica
Method: as §2

[27] = system: Strep. suis (Group D) SPS11; assay: Veterinary bacteria MIC; details: Streptococcus suis
Method: as §2

[28] = system: Past. multocida PA1; assay: Veterinary bacteria MIC; details: Pasteurella multocida, Diagnostic Sensitivity Test Agar, 18 hours 37° C.
Method: as §2

[29] = system: Strep. agalactiae SPA1; assay: Veterinary bacteria MIC; details: Streptococcus agalactiae, Diagnostic Sensitivity Test Agar, 18 hours 37° C.
Method: as §2

[30] = system: Staph. aureus B4 (pen. resistant); assay: Veterinary bacteria MIC; details: Staphylococcus aureus, Diagnostic Sensitivity Test Agar, 18 hours 37° C.
Method: as §2

[31] = system: Staph. aureus Oxford; assay: Veterinary bacteria MIC; details: Staphylococcus aureus, Diagnostic Sensitivity Test Agar, 18 hours 37° C.
Method: as §2

[32] = Pseudomonas aeruginosa, Ps. aeruginosa 10662, nutrient agar, 5% chocolated horse blood, 18 hours 37° C., read-out: M.I.C.
[33] = Bacillus subtilis 6633, nutrient agar, 5% chocolated horse blood, 18 hours 37° C., read-out: M.I.C.
[34] = Strep. Group C 64/848, nutrient agar, 5% chocolated horse blood, 18 hours 37° C., read-out: M.I.C.
[35] = Neisseria catarralis 1502, nutrient agar, 5% chocolated horse blood, 18 hours 37° C., read-out: M.I.C.
[36] = Strep. pneumoniae CN33, nutrient agar, 5% chocolated horse blood, 18 hours 37° C., read-out: M.I.C.
[37] = Strep Group B 2788, nutrient agar, 5% chocolated horse blood, 18 hours 37° C., read-out: M.I.C.
[38] = K. aerogenes A, nutrient agar, 5% chocolated horse blood, 18 hours 37° C., read-out: M.I.C.
[39] = Proteus mirabilis, P. mirabilis 889, nutrient agar, 5% chocolated horse blood, 18 hours 37° C., read-out: M.I.C.
[40] = Staph. aureus Oxford, nutrient agar, 5% chocolated horse blood, 18 hours 37° C., read-out: M.I.C.
[41] = E. coli El, Diagnostic Sensitivity Test Agar, 18 hours 37° C., read-out: M.I.C.
[42] = NCTC10418, E. coli NCTC 10418, Diagnostic Sensitivity Test Agar, 18 hours 37° C., read-out: M.I.C.
[43] = Corynebacterium pyogenes CY1, Diagnostic Sensitivity Test Agar, 18 hours 37° C., read-out: M.I.C.
[44] = S. dublin S7, Diagnostic Sensitivity Test Agar, 18 hours 37° C., read-out: M.I.C.
[45] = Bord. bronchiseptica B08, Diagnostic Sensitivity Test Agar, 18 hours 37° C., read-out: M.I.C.
[46] = S. typhimurium S18, Diagnostic Sensitivity Test Agar, 18 hours 37° C., read-out: M.I.C.
[47] = Strep. suis (Group D) SPS11, Diagnostic Sensitivity Test Agar, 18 hours 37° C., read-out: M.I.C.
[48] = Erysipelothrix rhusiopathiae, NCTC8163, 18 h

C/C(=C\C(=O)OCCCC(=NNC(N)=O)c1ccccc1)C[C@@H]1OC[C@H](C[C@@H]2O[C@H]2[C@@H](C)[C@H](C)O)[C@@H](O)[C@H]1O [Example 2, 4-Phenyl-4-semicarbazonobutyl monate A]
MIC [1]: 0.5 µg/mL (≈ 0.913 µM) | MIC [2]: 0.25 µg/mL (≈ 0.456 µM) | MIC [3, 32]: 100 µg/mL (≈ 183 µM) | MIC [4, 33]: 2.5 µg/mL (≈ 4.56 µM) | MIC [5, 34]: 5 µg/mL (≈ 9.13 µM) | MIC [6, 35]: 1 µg/mL (≈ 1.83 µM) | MIC ([7]; E. coli ESS, nutrient agar, 5% chocolated horse blood, 18 hours 37° C., read-out: M.I.C.): 5 µg/mL (≈ 9.13 µM) | MIC [8, 36]: 1 µg/mL (≈ 1.83 µM) | MIC [9, 37]: 2.5 µg/mL (≈ 4.56 µM) | MIC [10, 38]: > 100 µg/mL | MIC [11, 39]: > 100 µg/mL | MIC [12, 40]: 5 µg/mL (≈ 9.13 µM) | MIC [13]: 10 µg/mL (≈ 18.3 µM) | MIC [14]: 5 µg/mL (≈ 9.13 µM) | MIC [15]: 80 µg/mL (≈ 146 µM) | MIC [16, 41]: > 80 µg/mL | MIC [17]: 0.625 µg/mL (≈ 1.14 µM) | MIC [18, 42]: > 80 µg/mL | MIC [19]: 80 µg/mL (≈ 146 µM) | MIC [20, 43]: > 80 µg/mL | MIC ([21]; NCTC8163, Erysipelothrix rhusiopathiae NCTC 8163, Diagnostic Sensitivity Test Agar, 18 hours 37° C., read-out: M.I.C.): 10 µg/mL (≈ 18.3 µM) | MIC [22]: 5 µg/mL (≈ 9.13 µM) | MIC [23]: 0.625 µg/mL (≈ 1.14 µM) | MIC [24, 44]: > 80 µg/mL | MIC [25, 45]: > 80 µg/mL | MIC [26, 46]: > 80 µg/mL | MIC [27, 47]: 10 µg/mL (≈ 18.3 µM) | MIC [28]: 20 µg/mL (≈ 36.5 µM) | MIC [29]: 2.5 µg/mL (≈ 4.56 µM) | MIC [30]: 10 µg/mL (≈ 18.3 µM) | MIC [31]: 5 µg/mL (≈ 9.13 µM)

C/C(=C\C(=O)OCCCCCC=NN(C)C)C[C@@H]1OC[C@H](C[C@@H]2O[C@H]2[C@@H](C)[C@H](C)O)[C@@H](O)[C@H]1O [Example 6, 6-Dimethylhydrazonohexyl monate A]
MIC [1]: 1 µg/mL (≈ 2.06 µM) | MIC [2]: 0.25 µg/mL (≈ 0.516 µM) | MIC ([3]; Pseudomonas aeruginosa, 10662, 18 h): > 100 µg/mL | MIC ([4]; Bacillus subtilis, 6633, 18 h): 5 µg/mL (≈ 10.3 µM) | MIC ([5]; 18 h): 1 µg/mL (≈ 2.06 µM) | MIC ([6]; Neisseria, 1502, 18 h): 0.05 µg/mL (≈ 0.103 µM) | MIC ([7]; 18 h): 5 µg/mL (≈ 10.3 µM) | MIC ([8]; CN33, 18 h): 1 µg/mL (≈ 2.06 µM) | MIC ([9]; 18 h): 1 µg/mL (≈ 2.06 µM) | MIC ([10]; 18 h): > 100 µg/mL | MIC ([11]; Proteus mirabilis, 889, 18 h): > 100 µg/mL | MIC ([12]; 18 h): 0.1 µg/mL (≈ 0.206 µM) | MIC [13]: 0.25 µg/mL (≈ 0.516 µM) | MIC [14]: 0.07 µg/mL (≈ 0.144 µM) | MIC [15]: 2.5 µg/mL (≈ 5.16 µM) | MIC ([16]; 18 h): > 80 µg/mL | MIC [17]: 0.312 µg/mL (≈ 0.644 µM) | MIC ([18]; NCTC10418, 18 h): > 80 µg/mL | MIC [19]: 10 µg/mL (≈ 20.6 µM) | MIC ([20]; CY1, 18 h): > 80 µg/mL | MIC [21, 48]: 80 µg/mL (≈ 165 µM) | MIC [22]: 0.312 µg/mL (≈ 0.644 µM) | MIC [23]: 0.07 µg/mL (≈ 0.144 µM) | MIC ([24]; S7, 18 h): > 80 µg/mL | MIC ([25]; B08, 18 h): 5 µg/mL (≈ 10.3 µM) | MIC ([26]; TYPHIMURIUM, 18 h): > 80 µg/mL | MIC ([27]; 18 h): 20 µg/mL (≈ 41.3 µM) | MIC [28]: 2.5 µg/mL (≈ 5.16 µM) | MIC [29]: 1.25 µg/mL (≈ 2.58 µM) | MIC [30]: 0.07 µg/mL (≈ 0.144 µM) | MIC [31]: 0.07 µg/mL (≈ 0.144 µM)

CON=C(CCCOC(=O)/C=C(\C)C[C@@H]1OC[C@H](C[C@@H]2O[C@H]2[C@@H](C)[C@H](C)O)[C@@H](O)[C@H]1O)c1ccccc1 [Example 5, 4-Methoxyimino-4-phenylbutyl monate A]
MIC ([1]; M. suipneumoniae TAM 6N, Friis broth, 0.9% agarose, 6 days 37° C., read-out: M.I.C.): 0.5 µg/mL (≈ 0.962 µM) | MIC [2]: 0.25 µg/mL (≈ 0.481 µM) | MIC [3, 32]: > 100 µg/mL | MIC [4, 33]: 1 µg/mL (≈ 1.92 µM) | MIC [5, 34]: 2.5 µg/mL (≈ 4.81 µM) | MIC [6, 35]: 1 µg/mL (≈ 1.92 µM) | MIC ([7]; 18 h): 5 µg/mL (≈ 9.62 µM) | MIC [8, 36]: 2.5 µg/mL (≈ 4.81 µM) | MIC [9, 37]: 5 µg/mL (≈ 9.62 µM) | MIC [10, 38]: > 100 µg/mL | MIC [11, 39]: > 100 µg/mL | MIC [12, 40]: 1 µg/mL (≈ 1.92 µM) | MIC [13]: 2.5 µg/mL (≈ 4.81 µM) | MIC [14]: 0.625 µg/mL (≈ 1.2 µM) | MIC [15]: 40 µg/mL (≈ 77 µM) | MIC [16, 41]: > 80 µg/mL | MIC [17]: 0.625 µg/mL (≈ 1.2 µM) | MIC [18, 42]: > 80 µg/mL | MIC [19]: 80 µg/mL (≈ 154 µM) | MIC [20, 43]: > 80 µg/mL | MIC [21, 48]: 40 µg/mL (≈ 77 µM) | MIC [22]: 0.039 µg/mL (≈ 0.0751 µM) | MIC [23]: 1.25 µg/mL (≈ 2.41 µM) | MIC [24, 44]: > 80 µg/mL | MIC [25, 45]: > 80 µg/mL | MIC [26, 46]: > 80 µg/mL | MIC [27, 47]: 20 µg/mL (≈ 38.5 µM) | MIC [28]: 20 µg/mL (≈ 38.5 µM) | MIC [29]: 1.25 µg/mL (≈ 2.41 µM) | MIC [30]: 0.625 µg/mL (≈ 1.2 µM) | MIC [31]: 0.625 µg/mL (≈ 1.2 µM)
